Measurements as given in patent US20190185479A1, “BICYCLIC NITROGENATED HETEROCYCLIC COMPOUND” (MITSUBISHI TANABE PHARMA CORPORATION, priority 2016, published 2019).

What was measured:
hPDE7B = biological target: T1, hPDE7B (Homo sapiens, UniProt Q9NP56); experiment: PDE7 selectivity test (Ki value), Experimental Example 2: hPDE7B; type: biochemical; conditions: Ki from IC50 by Cheng-Prusoff, read-out: PDE inhibition constant Ki, PDE7
T1 construct: made in house; host or cells: COS-7 cells
Protocol: (§1) hPDE1A, hPDE2A, hPDE3A, hPDE4D, hPDE5A, and hPDE8B were purchased from SB Drug Discovery. hPDE7B was isolated by the same method as [Method for preparing samples 1], and hPDE9A, hPDE10A, and hPDE11A were isolated by the same method as hPDE7B, i.e., isolated from COS-7 cells transfected with plasmids encoding each PDE. PDE6 was purified and isolated from bovine retina (bovine PDE6).
(§2) Prior to the calculation of Ki value, Km value of each PDE against cAMP or cGMP was calculated. Each PDE diluted with an assay buffer so that it would have an appropriate enzyme activity, and six or more concentrations of cAMP or cGMP were reacted at room temperature for 60 minutes. Regarding PDE using cAMP as a substrate, PDELight (trademark) HTS cAMP phosphodiesterase Kit (Lonza) was used to measure a degradation product, 5′-AMP. Also, regarding PDE using cGMP as a substrate, […] of perchloric acid was added to the mixture to stop the reaction, and the resulting mixture was subjected to LC-MS/MS to measure the residual cGMP concentration. The amount of degraded substrate in each substrate concentration was calculated, the concentration of the added substrate was plotted on the horizontal axis, the amount of degraded substrate was plotted on the vertical axis, and Km value was calculated by non-linear regression on the basis of Michaelis-Menten equation. Km value (substrate) of each PDE was hPDE1A: 4.3 (cGMP), hPDE2A: 36 (cAMP), hPDE3A: 0.11 (cAMP), hPDE4D: 0.90 (cAMP), hPDE5A: 3.9 (cGMP), bovine PDE6:9.8 (cGMP), hPDE7B: 0.015 (cAMP), hPDE8B: 0.63 (cAMP), hPDE9A: 0.0037 (cGMP), hPDE10A: 0.051 (cAMP), and hPDE11A: 1.4 (cAMP) μmol/L, respectively.
(§3) Next, PDE inhibition assay of a compound was carried out using each PDE. The PDE inhibition assay was basically carried out by the same enzyme reaction method as [Assay procedure 1], and the degraded amount of cAMP or cGMP was measured by the same method as [Assay procedure 2]. In the assay, a concentration approximated to Km value of each PDE against cAMP or cGMP was used as a substrate concentration. Meanwhile, regarding hPDE5A, hPDE8B, and hPDE9A, IMAP (trademark) FP Phosphodiesterase Evaluation Assay Kit (Molecular Devices) was used to measure the degradation of FAM-cAMP or FAM-cGMP by fluorescence depolarization technique.
(§4) Each compound was evaluated at six or more concentrations with common ratio 10. Each inhibition rate was calculated according to <Method for data calculation 1>, and then each IC50 value was calculated by sigmoid regression. The resulting IC50 value was used in the following Cheng-Prusoff equation to calculate each Ki value. Ki=IC50/(1+[S]/Km), wherein [S] represents a substrate concentration used

bovine PDE6 = biological target: T2, bovine PDE6 (Bos taurus, UniProt P11541+P23439); experiment: PDE7 selectivity test (Ki value), Experimental Example 2: bovine PDE6; type: biochemical; conditions: Ki from IC50 by Cheng-Prusoff, read-out: PDE inhibition constant Ki, PDE6
T2 construct: PDE6 was purified and isolated from bovine retina (bovine PDE6); from tissue; host or cells: bovine retina
T2 sequence (P11541 2-856 limits assumed): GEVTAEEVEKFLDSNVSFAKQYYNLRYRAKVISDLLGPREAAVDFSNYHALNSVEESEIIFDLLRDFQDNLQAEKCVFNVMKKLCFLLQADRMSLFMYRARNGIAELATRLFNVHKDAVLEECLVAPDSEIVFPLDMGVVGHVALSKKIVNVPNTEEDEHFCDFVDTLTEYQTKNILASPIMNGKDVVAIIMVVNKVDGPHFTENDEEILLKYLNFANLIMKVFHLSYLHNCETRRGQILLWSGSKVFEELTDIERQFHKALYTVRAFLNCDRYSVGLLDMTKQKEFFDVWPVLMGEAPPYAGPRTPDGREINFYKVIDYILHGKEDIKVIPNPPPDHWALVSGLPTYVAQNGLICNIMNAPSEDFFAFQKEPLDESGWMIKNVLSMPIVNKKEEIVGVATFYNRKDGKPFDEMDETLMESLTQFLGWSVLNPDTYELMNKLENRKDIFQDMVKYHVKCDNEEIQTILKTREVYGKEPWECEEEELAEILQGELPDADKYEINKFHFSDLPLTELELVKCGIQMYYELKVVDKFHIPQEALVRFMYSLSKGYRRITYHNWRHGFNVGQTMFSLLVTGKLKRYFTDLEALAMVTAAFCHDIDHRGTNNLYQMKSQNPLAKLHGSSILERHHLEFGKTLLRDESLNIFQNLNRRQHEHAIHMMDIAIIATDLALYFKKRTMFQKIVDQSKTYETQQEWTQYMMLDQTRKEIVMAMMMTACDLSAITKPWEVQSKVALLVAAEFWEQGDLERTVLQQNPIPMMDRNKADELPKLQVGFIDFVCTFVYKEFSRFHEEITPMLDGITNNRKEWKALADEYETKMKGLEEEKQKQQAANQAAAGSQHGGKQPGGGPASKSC
T2 sequence (P23439 2-850 limits assumed): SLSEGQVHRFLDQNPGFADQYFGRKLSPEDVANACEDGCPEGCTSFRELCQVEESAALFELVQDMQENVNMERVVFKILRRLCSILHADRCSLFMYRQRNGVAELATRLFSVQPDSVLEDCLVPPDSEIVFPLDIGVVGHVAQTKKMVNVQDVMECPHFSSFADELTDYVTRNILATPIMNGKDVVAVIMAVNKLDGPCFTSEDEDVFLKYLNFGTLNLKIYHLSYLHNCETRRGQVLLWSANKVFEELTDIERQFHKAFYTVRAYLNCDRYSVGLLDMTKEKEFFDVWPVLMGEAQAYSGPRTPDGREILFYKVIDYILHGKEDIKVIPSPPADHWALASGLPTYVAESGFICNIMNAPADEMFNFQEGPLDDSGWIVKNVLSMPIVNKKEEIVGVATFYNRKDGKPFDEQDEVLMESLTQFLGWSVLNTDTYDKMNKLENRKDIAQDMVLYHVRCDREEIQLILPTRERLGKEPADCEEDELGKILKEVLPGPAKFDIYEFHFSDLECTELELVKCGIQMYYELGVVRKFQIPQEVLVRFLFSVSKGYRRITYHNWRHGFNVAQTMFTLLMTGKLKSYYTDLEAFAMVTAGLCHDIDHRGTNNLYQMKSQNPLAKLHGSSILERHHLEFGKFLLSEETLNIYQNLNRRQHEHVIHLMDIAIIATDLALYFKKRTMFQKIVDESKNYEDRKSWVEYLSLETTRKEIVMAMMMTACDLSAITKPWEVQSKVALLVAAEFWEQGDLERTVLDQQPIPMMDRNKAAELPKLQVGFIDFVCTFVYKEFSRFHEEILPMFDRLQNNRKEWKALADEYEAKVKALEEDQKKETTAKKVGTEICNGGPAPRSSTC
Protocol: as §1, §2, §3, §4

T1 sequence (Q9NP56 whole entry): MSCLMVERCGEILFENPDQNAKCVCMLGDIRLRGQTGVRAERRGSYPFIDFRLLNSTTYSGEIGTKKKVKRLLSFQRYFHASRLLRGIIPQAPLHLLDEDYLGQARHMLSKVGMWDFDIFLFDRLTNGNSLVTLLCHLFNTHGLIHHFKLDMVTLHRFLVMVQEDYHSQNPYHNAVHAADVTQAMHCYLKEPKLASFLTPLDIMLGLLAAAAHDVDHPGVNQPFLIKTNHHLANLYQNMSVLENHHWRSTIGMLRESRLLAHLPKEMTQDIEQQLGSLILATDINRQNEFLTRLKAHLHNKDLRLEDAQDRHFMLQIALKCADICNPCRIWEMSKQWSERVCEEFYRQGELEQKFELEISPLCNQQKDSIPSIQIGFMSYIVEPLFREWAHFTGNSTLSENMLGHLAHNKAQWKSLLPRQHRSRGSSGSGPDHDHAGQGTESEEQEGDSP

Structure (SMILES)	Ki (hPDE7B)	Ki (bovine PDE6)
CC1CCCCC1n1nnc2c(N)ncnc21 (single isomer, unassigned) [Example 191, 3-(cis-2-methylcyclohexyl)-3H-[1,2,3]triazolo[4,5-d]pyrimidin-7-amine]	12 nM	> 49000 nM
Cc1nc(N)c2nnn(C3CCCCC3)c2n1 [Example 4]	27 nM	> 4900 nM
Nc1nccn2c(C3CCCCC3)nnc12 [Example 141, 3-cyclohexyl[1,2,4]triazolo[4,3-a]pyrazin-8-amine]	31 nM	> 4900 nM

More lines, now with the values ahead:

Ki (hPDE7B)	Ki (bovine PDE6)	Structure (SMILES)
31 nM	> 49000 nM	Nc1ncnc2c1nnn2C1CCCCC1 [Example 3, 3-cyclohexyl-3H-[1,2,3]triazolo[4,5-d]pyrimidin-7-amine]
3 nM	> 49000 nM	C[C@@H]1CCC[C@H](c2nnc3c(N)nccn23)C1 [Example 204, 3-[(1S,3R)-3-methylcyclohexyl][1,2,4]triazolo[4,3-a]pyrazin-8-amine]
